Data reported in patent publication US10039759B2, “Quinolines as FGFR kinase modulators” (priority 2011, dated 2018).

How the values were obtained:
[1] = target: T1, Ba/F3-KDR-transfected cells (Homo sapiens, UniProt P35968, cells depend on it, form not given); test: Ba/F3-KDR (minus IL3 or plus IL3) cellular proliferation assay, Alamar Blue; assay type: cell-based; conditions: minus IL3; 24 hours, Alamar Blue
T1 construct: BAF3-KDR (MIN IL3 Alamar Blue pIC50); other: minus IL3; 24 hours, Alamar Blue
Procedure, shortened: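 Ba/F3-KDR cells, 20000 per well, exposed to compounds (10 μM to 0.1 nM) for 24 h at 37°C in RPMI/10% FBS, then Alamar Blue for 4 h; fluorescence ex 540/em 590 nm gives IC50 and pIC50. Counterscreen run with 10 ng/ml murine IL3.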

[2] = target: T2, Ba/F3-FGFR3-transfected cells (Homo sapiens, UniProt P22607, cells depend on it, form not given); test: Ba/F3-FGFR3 (minus IL3 or plus IL3) cellular proliferation assay, Alamar Blue; assay type: cell-based; conditions: minus IL3; 24 hours, Alamar Blue
T2 construct: BAF3-FGFR3 (MIN IL3 Alamar Blue- pIC50); other: minus IL3; 24 hours, Alamar Blue
Procedure, shortened: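 Ba/F3-FGFR3 cells (20000 per well) in phenol red-free RPMI-1640 with 10% FBS were exposed to compound (10 μM to 0.1 nM) for 24 h at 37° C. Alamar Blue was then added for 4 h and fluorescence read (ex 540, em 590 nm) to give IC50/pIC50; the counterscreen was run with 10 ng/ml murine IL3.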

[3] = target: Ba/F3-FGFR4-transfected cells (Homo sapiens, UniProt P22455); test: Ba/F3-FGFR4 cellular proliferation assay, Alamar Blue; assay type: cell-based; conditions: 24 hours
Procedure, shortened: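 Ba/F3 cells transfected with human FGFR4, 20000 per well in phenol red-free RPMI-1640 with 10% FBS, exposed to compound (10 μM to 0.1 nM) for 24 h at 37 °C. Viability by Alamar Blue (resazurin), 4 h, fluorescence ex 540/em 590 nm; IC50 and pIC50 calculated.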

[4] = target: FGFR4 (h) (Homo sapiens, UniProt P22455); test: FGFR4 (enzymatic assay), TR-FRET; assay type: biochemical; conditions: FGFR 4 pIC50, 5 μM ATP, 60 min; pIC50 = -log IC50 (M); average if tested multiple times
[5] = target: FGFR2 (h) (Homo sapiens, UniProt P21802); test: FGFR2 (enzymatic assay), TR-FRET; assay type: biochemical; conditions: 0.4 μM ATP, 60 min; pIC50 = -log IC50 (M); average if tested multiple times; read-out: FGFR 2 pIC50 (converted)
FGFR2 (h), sequence (P21802 22-821): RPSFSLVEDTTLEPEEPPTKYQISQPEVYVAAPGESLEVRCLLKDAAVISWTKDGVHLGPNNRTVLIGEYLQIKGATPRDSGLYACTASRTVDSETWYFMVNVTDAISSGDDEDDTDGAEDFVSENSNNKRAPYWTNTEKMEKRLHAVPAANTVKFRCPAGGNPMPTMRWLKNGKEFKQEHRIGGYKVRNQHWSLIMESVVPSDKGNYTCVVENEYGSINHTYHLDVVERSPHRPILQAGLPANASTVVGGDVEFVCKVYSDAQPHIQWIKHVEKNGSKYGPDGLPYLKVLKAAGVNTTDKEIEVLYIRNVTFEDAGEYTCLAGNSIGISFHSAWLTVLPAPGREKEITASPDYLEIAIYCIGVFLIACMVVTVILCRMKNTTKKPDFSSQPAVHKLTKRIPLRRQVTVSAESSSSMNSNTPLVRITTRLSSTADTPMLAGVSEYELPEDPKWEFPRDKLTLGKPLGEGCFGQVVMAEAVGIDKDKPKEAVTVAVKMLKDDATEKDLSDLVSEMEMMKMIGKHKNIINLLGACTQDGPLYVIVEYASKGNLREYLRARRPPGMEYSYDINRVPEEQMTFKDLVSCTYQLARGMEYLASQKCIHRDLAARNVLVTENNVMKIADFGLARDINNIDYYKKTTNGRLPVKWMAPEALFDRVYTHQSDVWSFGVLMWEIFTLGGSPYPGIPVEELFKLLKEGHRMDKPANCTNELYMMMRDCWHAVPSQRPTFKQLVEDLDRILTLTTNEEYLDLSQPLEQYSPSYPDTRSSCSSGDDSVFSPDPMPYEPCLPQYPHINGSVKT

T2 sequence (P22607 whole entry, change not shown): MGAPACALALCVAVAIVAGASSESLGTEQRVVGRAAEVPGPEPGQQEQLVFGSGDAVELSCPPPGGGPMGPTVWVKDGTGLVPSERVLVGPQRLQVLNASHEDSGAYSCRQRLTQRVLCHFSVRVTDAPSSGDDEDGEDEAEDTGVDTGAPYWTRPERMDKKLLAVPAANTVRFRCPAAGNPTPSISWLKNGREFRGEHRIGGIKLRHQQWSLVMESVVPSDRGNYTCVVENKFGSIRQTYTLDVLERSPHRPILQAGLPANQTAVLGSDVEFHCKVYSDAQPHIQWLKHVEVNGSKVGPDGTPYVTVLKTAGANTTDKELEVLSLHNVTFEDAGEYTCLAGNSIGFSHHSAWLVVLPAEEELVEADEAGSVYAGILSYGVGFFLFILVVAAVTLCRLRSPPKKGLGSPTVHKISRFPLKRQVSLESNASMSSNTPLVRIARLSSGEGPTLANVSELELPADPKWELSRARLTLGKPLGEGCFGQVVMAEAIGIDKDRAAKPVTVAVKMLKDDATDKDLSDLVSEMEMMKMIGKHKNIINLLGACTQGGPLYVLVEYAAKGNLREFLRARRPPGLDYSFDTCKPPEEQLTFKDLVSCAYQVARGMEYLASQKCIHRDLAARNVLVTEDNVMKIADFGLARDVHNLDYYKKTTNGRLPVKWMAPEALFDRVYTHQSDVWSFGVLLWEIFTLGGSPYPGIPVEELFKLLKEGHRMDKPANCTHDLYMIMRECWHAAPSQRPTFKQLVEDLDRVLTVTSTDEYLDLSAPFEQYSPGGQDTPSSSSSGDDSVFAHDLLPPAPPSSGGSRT
T1 sequence (P35968 whole entry, change not shown): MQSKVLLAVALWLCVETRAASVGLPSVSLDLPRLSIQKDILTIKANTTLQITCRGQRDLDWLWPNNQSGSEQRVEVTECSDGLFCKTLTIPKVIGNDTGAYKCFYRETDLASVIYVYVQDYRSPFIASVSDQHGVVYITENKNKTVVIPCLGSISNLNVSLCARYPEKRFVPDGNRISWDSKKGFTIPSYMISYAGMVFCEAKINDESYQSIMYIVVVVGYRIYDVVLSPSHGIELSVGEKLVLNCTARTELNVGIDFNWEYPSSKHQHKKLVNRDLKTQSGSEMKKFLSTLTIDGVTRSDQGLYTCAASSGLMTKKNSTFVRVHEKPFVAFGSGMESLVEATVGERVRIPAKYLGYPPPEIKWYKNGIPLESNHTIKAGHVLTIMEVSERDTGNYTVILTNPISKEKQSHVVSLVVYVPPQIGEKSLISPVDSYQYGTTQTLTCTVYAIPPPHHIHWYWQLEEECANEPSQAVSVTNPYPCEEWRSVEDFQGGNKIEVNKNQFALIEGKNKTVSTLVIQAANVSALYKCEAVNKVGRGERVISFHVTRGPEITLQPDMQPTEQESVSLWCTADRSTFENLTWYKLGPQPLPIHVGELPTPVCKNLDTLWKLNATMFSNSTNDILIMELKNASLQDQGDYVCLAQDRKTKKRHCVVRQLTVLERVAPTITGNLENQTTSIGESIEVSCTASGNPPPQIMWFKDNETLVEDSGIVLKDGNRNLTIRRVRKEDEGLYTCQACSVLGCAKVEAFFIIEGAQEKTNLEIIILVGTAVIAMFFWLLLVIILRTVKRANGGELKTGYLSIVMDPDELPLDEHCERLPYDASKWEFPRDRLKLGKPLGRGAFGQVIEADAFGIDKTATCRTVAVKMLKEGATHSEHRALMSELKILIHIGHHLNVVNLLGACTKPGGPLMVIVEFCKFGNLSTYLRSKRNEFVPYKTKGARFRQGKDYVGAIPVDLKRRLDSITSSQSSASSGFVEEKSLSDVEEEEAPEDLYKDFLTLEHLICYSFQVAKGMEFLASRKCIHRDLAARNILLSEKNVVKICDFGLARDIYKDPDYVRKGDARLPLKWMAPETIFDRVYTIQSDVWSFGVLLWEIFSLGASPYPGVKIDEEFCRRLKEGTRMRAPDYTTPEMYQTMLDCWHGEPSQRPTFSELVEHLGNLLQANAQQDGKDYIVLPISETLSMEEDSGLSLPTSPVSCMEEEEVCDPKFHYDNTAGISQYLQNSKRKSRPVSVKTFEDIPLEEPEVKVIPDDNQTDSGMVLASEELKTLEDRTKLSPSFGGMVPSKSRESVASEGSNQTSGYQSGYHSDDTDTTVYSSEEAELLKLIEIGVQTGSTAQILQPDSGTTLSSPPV
FGFR4 (h), sequence (P22455 22-802): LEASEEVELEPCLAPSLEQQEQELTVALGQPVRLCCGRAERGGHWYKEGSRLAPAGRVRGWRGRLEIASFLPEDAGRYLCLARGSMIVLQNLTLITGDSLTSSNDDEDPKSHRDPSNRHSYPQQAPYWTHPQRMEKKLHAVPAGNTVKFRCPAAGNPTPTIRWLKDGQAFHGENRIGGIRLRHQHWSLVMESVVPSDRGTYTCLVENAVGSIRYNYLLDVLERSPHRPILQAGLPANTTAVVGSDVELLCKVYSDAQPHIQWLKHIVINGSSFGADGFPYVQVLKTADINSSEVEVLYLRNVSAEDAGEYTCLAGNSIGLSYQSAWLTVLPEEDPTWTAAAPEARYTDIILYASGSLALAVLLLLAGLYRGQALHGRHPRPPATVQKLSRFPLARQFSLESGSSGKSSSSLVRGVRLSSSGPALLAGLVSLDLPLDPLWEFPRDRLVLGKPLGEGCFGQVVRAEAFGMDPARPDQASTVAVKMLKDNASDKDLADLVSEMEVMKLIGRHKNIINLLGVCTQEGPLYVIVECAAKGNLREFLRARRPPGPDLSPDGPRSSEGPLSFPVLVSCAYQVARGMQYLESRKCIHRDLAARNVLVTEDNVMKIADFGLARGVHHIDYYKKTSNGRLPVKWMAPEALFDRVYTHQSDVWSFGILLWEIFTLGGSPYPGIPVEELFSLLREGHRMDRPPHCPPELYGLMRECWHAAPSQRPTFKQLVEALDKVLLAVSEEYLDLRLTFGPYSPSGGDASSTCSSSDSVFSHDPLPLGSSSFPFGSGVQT
Ba/F3-FGFR4-transfected cells, sequence (P22455 whole entry, change not shown): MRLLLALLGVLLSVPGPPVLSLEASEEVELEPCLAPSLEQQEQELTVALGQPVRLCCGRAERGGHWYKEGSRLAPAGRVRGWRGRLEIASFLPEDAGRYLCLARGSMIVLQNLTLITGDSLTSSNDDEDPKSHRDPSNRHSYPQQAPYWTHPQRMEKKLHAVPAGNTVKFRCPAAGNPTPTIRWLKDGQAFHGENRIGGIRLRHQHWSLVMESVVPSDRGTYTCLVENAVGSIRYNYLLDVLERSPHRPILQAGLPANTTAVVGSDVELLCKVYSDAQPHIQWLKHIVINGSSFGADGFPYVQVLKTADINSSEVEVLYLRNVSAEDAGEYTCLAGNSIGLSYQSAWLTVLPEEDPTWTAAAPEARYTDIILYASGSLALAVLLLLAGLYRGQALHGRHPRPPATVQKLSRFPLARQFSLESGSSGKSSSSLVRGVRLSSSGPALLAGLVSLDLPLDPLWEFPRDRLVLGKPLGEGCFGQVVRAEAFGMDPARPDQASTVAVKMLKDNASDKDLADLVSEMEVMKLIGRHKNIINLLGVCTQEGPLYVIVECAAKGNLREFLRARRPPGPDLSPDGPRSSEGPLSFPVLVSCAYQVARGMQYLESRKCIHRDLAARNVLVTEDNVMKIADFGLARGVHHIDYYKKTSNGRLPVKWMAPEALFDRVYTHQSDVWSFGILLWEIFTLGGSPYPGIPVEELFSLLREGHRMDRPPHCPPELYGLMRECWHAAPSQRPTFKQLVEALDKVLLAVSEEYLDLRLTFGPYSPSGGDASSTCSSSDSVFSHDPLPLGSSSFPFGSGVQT

SMILES | BAF3-KDR (MIN IL3 Alamar Blue pIC50) [1] | BAF3-FGFR3 (MIN IL3 Alamar Blue- pIC50) [2] | BAF3-FGFR 4 (pIC50) [3] | IC50 [4] [M] | IC50 [5] [M]
COc1cc(OC)cc(N(Cc2ncc[nH]2)c2ccc3ncc(-c4ccncc4)cc3c2)c1 [Compound 57] | <5 | ~6.77 | 6.16 | 4.47e-09 | 2.29e-09
COc1cc(OC)cc(N(Cc2nccn2S(=O)(=O)N(C)C)c2ccc3ncc(-c4ccncc4)cc3c2)c1 [Compound 58] | <5 | 5.57 | <5 | 1.86e-07 | 1.29e-08
COc1cc(OC)cc(N(Cc2ncc[nH]2)c2ccc3ncc(-c4cccnc4)cc3c2)c1 [Compound 59] | <5 | 6.50 | 6.02 | 7.41e-09 | 3.02e-09
COc1cc(OC)cc(N(Cc2nccn2S(=O)(=O)N(C)C)c2ccc3ncc(-c4cccnc4)cc3c2)c1 [Compound 60] | <5 | 5.22 | <5 | 2.51e-07 | 1.95e-08
COc1cc(Nc2ccc3ncc(-c4cnn(C5CCCCO5)c4)cc3c2)cc(OC)c1 (stereo not shown) [Int. 8] | <5 | ~5.53 | 5.04 | 4.9e-07 | 3.72e-08
